From ChEMBL document CHEMBL4411299, “A class of novel tubulin polymerization inhibitors exert effective anti-tumor activity via mitotic catastrophe” (Eur J Med Chem, 2019)
Activity calls are given as the source filed them. The rule behind the calls is not given here.

Legend:
Tubulin (Homo sapiens) [1] = target: T1, Tubulin (Homo sapiens) (UniProt P68371+Q9H4B7+P0DPH7+P68366+Q13509+Q71U36+P04350+Q3ZCM7+P07437+P68363+Q9BQE3+Q6PEY2+Q13885+Q9BVA1+Q9BUF5); test: Inhibition of tubulin polymerization in human HeLa cells assessed as induction of microtubule fiber breakdown at 0.02 uM after 12 hrs by DAPI staining-based confocal fluorescence microscopic analysis; format: cell-based
HeLa [2] = test: Induction of apoptosis in human HeLa cells assessed as necrotic cells at 0.05 uM after 24 hrs by Annexin V-FITC/propidium iodide staining-based flow cytometric analysis (reference value: 0.05%); format: functional
[3] = MRT (0 to t) in Sprague-Dawley rat at 1.5 mg/kg, iv administered as single dose by LC-MS/MS analysis; format: ADME, organism-based; conditions: in vivo
[4] = Cmax in male Sprague-Dawley rat at 1.5 mg/kg, iv administered as single dose by LC-MS/MS analysis; format: ADME, organism-based; design: dose 1.5 mg/kg, route intravenous; conditions: in vivo
[5] = MRT (0 to t) in female Sprague-Dawley rat at 1.5 mg/kg, iv administered as single dose by LC-MS/MS analysis; format: ADME, organism-based; conditions: in vivo
[6] = MRT (0 to infinity) in female Sprague-Dawley rat at 1.5 mg/kg, iv administered as single dose by LC-MS/MS analysis; format: ADME, organism-based; conditions: in vivo
[7] = AUC (0 to infinity) in male Sprague-Dawley rat at 1.5 mg/kg, iv administered as single dose by LC-MS/MS analysis; format: ADME, organism-based; design: dose 1.5 mg/kg, time infinity, route intravenous; conditions: in vivo
[8] = Half life in rat liver microsomes at 5 uM in presence of NADPH regenerating system by LC-MS/MS analysis; format: ADME, Microsome
[9] = Clearance in Sprague-Dawley rat at 1.5 mg/kg, iv administered as single dose by LC-MS/MS analysis; format: ADME, organism-based; conditions: in vivo
[10] = Clearance in male Sprague-Dawley rat at 1.5 mg/kg, iv administered as single dose by LC-MS/MS analysis; format: ADME, organism-based; conditions: in vivo
[11] = Toxicity in mouse xenografted with human HeLa cells assessed as effect on body weight at 5 to 20 mg/kg, iv administered every other day up to 20 days; format: organism-based; conditions: in vivo, 480 h
[12] = Cmax in female Sprague-Dawley rat at 1.5 mg/kg, iv administered as single dose by LC-MS/MS analysis; format: ADME, organism-based; design: dose 1.5 mg/kg, route intravenous; conditions: in vivo
A549 = test: Antiproliferative activity against human A549 cells after 48 hrs by MTT assay; format: functional; conditions: A549, 48 h
[13] = Toxicity in mouse xenografted with human HeLa cells assessed as change in liver weight at 5 to 20 mg/kg, iv administered every other day up to 20 days; format: organism-based; conditions: in vivo, 480 h
[14] = Apparent volume of distribution in Sprague-Dawley rat at 1.5 mg/kg, iv administered as single dose by LC-MS/MS analysis; format: ADME, organism-based; conditions: in vivo, read-out: Vd(app)
[15] = Half life in female Sprague-Dawley rat at 1.5 mg/kg, iv administered as single dose by LC-MS/MS analysis; format: ADME, organism-based; conditions: in vivo
[16] = Cmax in Sprague-Dawley rat at 1.5 mg/kg, iv administered as single dose by LC-MS/MS analysis; format: ADME, organism-based; design: dose 1.5 mg/kg, route intravenous; conditions: in vivo
HT-29 = test: Antiproliferative activity against human HT-29 cells after 48 hrs by MTT assay; format: functional; conditions: HT-29, 48 h
[17] = AUC (0 to t) in male Sprague-Dawley rat at 1.5 mg/kg, iv administered as single dose by LC-MS/MS analysis; format: ADME, organism-based; conditions: in vivo
[18] = Half life in monkey liver microsomes at 5 uM in presence of NADPH regenerating system by LC-MS/MS analysis; format: ADME, Macaca mulatta, Microsome; conditions: rhesus monkey
HeLa [19] = test: Antitumor activity against human HeLa cells xenografted in nude mouse assessed as tumor weight at 5 mg/kg, iv administered every other day up to 20 days (reference value: 1.014 +/- 0.116g); format: functional
Tubulin (Sus scrofa) = Tubulin (Sus scrofa) (UniProt P02554+P02550); test: (§1) Inhibition of porcine brain tubulin polymerization
Tubulin = Tubulin (Sus scrofa, UniProt P02554+P02550); test: as §1
Tubulin (Homo sapiens) [20] = target: T1, Tubulin (Homo sapiens); test: Inhibition of tubulin polymerization in human HeLa cells assessed as induction of multinuclear giant cells at 0.05 after 12 hrs by DAPI staining-based confocal fluorescence microscopic analysis; format: cell-based
Tubulin (Homo sapiens) [21] = target: T1, Tubulin (Homo sapiens); test: Inhibition of tubulin polymerization in human HeLa cells assessed as multipolar spindle formation at 0.02 after 12 hrs by DAPI staining-based confocal fluorescence microscopic analysis; format: cell-based
[22] = Apparent volume of distribution in male Sprague-Dawley rat at 1.5 mg/kg, iv administered as single dose by LC-MS/MS analysis; format: ADME, organism-based; conditions: in vivo, read-out: Vd(app)

Chain of Tubulin (Sus scrofa) (P02550 whole entry, looked up): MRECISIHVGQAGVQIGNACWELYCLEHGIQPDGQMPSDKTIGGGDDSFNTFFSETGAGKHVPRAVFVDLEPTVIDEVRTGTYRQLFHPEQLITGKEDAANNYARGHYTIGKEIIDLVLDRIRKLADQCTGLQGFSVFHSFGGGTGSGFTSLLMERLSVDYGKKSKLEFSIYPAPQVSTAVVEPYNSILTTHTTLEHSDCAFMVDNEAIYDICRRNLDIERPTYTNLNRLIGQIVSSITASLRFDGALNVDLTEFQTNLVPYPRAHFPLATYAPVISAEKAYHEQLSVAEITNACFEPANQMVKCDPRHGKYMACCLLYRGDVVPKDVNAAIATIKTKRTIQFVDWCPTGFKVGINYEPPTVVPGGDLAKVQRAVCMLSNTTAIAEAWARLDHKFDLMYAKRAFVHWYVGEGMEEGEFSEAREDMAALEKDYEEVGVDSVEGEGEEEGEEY
Chain of Tubulin (Sus scrofa) (P02554 whole entry, looked up): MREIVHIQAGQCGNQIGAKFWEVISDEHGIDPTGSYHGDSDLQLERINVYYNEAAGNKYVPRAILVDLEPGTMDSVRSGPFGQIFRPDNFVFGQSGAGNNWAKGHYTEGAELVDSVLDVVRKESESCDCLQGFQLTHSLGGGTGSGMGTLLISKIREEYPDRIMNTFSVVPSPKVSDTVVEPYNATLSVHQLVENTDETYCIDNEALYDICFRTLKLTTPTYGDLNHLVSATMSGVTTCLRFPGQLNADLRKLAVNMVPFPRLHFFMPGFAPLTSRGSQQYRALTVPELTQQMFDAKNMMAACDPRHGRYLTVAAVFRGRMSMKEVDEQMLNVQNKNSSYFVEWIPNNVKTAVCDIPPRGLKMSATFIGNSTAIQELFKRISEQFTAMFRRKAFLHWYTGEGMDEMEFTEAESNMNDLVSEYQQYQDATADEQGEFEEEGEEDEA

COC(=O)N1N=C(c2cccc(C)c2)CC1c1cc(OC)c(OC)c(OC)c1 (stereo unspecified)
Activity (Tubulin (Homo sapiens) [1]): Active | Activity (HeLa [2]): 0.46% | MRT last [3]: 54.6 min | Cmax [4]: 658 ng/mL | MRT last [5]: 57.6 min | MRT inf [6]: 70.8 min | AUC(0-inf) [7]: 491 ng·h/mL | half-life at 5 µM [8]: 37 min | clearance [9]: 65.3 mL/min/kg | clearance [10]: 51 mL/min/kg | Activity [11]: Non-Toxic | Cmax [12]: 531 ng/mL | GI50 (A549): 300 nM | Activity [13]: Non-Toxic | Vd [14]: 5.03 L/kg | half-life [15]: 55.8 min | Cmax [16]: 594 ng/mL | GI50 (HT-29): 100 nM | AUC(0-t) [17]: 475 ng·h/mL | half-life at 5 µM [18]: 123 min | Activity (HeLa [19]): 0.812 g | inhibition (Tubulin (Sus scrofa)): Dose-dependent effect | IC50 (Tubulin): 1490 nM | Activity (Tubulin (Homo sapiens) [20]): Active | Activity (Tubulin (Homo sapiens) [21]): Active | Vd [22]: 3.82 L/kg
